These are literature values, as cited in US11760974B2, “Personalized 3D neural culture system for generating human oligodendrocytes and studying myelination in vitro” (The Board of Trustees of the Leland Stanford Junior …, priority 2017, dated 2023).

Series [1] deals with element-binding protein (CBP) (Homo sapiens, UniProt Q92793).
In series [2] the target is T1, Wnt processing and secretion (Porcn) (Homo sapiens, UniProt Q9H237).
T1 sequence (Q9H237 1-461): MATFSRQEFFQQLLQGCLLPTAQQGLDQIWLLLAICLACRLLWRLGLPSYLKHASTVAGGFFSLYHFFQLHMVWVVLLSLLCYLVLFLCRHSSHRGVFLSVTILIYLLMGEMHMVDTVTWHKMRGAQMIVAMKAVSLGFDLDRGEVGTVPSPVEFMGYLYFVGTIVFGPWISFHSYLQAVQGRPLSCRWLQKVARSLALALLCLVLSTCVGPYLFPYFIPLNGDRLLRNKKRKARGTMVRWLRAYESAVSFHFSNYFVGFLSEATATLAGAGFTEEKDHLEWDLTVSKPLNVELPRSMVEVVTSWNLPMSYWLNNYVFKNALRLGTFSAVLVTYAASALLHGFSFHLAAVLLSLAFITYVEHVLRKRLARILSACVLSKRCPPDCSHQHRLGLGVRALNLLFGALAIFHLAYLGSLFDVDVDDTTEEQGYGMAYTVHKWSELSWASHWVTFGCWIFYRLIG
The note with it: cell-free assay.

Another series deals with T2, Porcn (Homo sapiens, UniProt Q9H237).
T2 sequence (Q9H237 1-461): T1 sequence (Q9H237 1-461)
The note with it: read-out: EC50 Porcn inhibitor.

The subject of series [3] is Wnt pathway in L-cells expressing Wnt3A. The following applies: read-out: IC50 Wnt pathway inhibition.
For series [4], the system named is Wnt signaling in TM3 cells (PORCN). The following applies: read-out: IC50 Wnt signaling inhibition.
For a further series, the target named is T3, TNKS2 (Homo sapiens, UniProt Q9H2K2).
T3 sequence (Q9H2K2 1-1166): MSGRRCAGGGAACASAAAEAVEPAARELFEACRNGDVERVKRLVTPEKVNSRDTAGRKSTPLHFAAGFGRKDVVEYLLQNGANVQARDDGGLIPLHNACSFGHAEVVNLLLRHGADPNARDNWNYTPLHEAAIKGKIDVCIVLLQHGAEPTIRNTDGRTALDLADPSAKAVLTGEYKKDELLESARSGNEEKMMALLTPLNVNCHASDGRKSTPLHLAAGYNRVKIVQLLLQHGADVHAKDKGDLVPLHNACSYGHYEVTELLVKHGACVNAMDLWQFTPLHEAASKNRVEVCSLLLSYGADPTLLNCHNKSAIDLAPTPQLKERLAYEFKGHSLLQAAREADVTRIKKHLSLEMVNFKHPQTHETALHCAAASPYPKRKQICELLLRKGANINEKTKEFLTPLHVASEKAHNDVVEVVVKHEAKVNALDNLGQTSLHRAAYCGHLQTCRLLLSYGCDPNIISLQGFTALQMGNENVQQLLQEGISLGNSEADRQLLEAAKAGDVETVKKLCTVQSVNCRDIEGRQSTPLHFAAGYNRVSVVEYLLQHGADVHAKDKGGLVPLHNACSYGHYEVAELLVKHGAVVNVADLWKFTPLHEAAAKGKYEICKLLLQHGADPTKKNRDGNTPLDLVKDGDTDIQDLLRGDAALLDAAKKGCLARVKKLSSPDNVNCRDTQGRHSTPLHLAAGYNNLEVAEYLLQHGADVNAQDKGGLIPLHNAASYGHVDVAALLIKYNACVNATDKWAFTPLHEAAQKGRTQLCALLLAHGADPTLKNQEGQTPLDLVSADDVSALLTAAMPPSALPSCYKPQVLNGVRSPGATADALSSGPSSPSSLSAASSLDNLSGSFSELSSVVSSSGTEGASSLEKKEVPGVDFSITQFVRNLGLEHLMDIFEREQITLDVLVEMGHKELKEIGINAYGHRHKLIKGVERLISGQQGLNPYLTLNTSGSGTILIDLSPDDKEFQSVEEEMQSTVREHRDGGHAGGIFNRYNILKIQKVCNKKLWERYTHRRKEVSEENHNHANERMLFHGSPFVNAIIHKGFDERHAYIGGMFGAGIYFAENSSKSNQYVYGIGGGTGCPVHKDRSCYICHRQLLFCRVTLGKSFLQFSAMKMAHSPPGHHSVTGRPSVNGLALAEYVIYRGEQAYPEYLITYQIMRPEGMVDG

The test system of series [5] is PORCN / Wnt3A-mediated TCF-luciferase activation in HEK293 cells. The following applies: read-out: IC50 Wnt3A-mediated activation of TCF-binding site driving luciferase.

Sequence of element-binding protein (CBP) (Q92793 whole entry): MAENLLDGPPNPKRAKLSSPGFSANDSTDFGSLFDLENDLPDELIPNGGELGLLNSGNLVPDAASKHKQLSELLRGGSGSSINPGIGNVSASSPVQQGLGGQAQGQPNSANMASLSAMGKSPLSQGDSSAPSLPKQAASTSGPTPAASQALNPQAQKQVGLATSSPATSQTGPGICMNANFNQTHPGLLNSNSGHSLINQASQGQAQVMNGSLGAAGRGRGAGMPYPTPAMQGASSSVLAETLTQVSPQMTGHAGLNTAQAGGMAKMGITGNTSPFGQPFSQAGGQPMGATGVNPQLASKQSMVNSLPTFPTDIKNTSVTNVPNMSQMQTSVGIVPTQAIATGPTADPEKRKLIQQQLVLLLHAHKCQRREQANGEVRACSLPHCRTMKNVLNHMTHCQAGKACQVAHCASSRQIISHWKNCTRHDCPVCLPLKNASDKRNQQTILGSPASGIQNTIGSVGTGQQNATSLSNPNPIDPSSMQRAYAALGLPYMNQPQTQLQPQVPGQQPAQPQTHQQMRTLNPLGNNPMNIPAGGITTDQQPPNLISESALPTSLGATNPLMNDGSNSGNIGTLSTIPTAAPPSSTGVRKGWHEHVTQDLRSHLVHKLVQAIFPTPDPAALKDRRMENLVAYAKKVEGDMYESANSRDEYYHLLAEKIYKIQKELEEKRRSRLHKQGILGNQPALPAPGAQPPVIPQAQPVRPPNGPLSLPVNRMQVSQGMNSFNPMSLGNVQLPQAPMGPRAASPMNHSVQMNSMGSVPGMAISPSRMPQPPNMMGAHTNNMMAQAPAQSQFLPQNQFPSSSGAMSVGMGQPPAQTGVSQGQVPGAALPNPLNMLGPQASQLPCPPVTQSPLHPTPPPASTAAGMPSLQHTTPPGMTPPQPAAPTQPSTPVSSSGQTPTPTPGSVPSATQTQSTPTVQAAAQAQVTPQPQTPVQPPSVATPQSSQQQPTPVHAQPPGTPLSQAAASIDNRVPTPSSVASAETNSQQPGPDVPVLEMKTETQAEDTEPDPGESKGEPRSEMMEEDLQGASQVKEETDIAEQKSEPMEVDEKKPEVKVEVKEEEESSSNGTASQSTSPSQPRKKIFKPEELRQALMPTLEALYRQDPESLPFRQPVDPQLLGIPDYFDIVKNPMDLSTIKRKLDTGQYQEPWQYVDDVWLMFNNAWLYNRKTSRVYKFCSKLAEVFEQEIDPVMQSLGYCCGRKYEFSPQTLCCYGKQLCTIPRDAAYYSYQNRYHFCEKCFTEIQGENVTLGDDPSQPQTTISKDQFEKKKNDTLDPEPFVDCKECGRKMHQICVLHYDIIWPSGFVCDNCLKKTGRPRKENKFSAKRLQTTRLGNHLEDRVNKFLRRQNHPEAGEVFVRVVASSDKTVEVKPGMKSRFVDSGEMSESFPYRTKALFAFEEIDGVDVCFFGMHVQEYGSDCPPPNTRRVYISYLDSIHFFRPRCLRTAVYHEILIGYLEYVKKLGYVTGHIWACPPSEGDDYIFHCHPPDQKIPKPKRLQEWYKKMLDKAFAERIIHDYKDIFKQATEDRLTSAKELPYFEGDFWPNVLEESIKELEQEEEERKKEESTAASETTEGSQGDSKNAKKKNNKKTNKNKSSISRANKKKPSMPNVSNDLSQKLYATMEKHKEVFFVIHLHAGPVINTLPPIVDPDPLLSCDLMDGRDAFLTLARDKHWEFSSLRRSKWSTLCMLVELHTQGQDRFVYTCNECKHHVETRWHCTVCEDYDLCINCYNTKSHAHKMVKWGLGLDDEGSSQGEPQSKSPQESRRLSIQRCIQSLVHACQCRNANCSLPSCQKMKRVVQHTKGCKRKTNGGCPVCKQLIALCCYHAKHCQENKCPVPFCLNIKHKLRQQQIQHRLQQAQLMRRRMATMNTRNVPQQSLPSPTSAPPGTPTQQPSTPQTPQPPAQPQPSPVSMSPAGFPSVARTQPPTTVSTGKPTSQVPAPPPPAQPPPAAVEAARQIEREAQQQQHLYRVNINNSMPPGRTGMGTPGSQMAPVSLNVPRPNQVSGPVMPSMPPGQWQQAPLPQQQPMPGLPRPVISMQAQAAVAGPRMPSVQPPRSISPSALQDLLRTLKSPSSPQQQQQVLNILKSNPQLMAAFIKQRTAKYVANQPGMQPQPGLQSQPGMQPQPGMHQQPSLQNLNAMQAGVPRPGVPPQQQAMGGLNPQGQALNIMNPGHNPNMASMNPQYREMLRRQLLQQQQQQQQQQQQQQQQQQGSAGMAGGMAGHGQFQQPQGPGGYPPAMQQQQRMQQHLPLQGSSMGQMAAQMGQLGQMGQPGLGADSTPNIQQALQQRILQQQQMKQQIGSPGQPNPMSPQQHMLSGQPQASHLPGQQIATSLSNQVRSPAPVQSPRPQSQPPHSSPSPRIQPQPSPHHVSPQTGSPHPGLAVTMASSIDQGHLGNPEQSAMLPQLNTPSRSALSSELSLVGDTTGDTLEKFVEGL

For the compound `O=C1[C@H](Cc2ccc(O)cc2)N2C(=O)CCN(C(=O)NCc3ccccc3)[C@H]2CN1Cc1cccc2ccccc12` [ICG-001], the 50% inhibitory concentration (IC50) in series [1] was 3000 nM. Take `Cc1ccc2nc(NC(=O)CSc3nc4c(c(=O)n3-c3ccccc3)SCC4)sc2c1` [IWP-2]: the IC50 in series [2] is 27 nM. `O=C(CSc1nc2c(c(=O)n1-c1ccccc1)SCC2)Nc1ccc(-c2ccccc2)cn1` [IWP-L6]: the concentration for a half-maximal effect (EC50) on Porcn is 0.5 nM.

For `O=C(Nc1cccc2cccnc12)c1ccc(N2C(=O)[C@@H]3[C@H](C2=O)[C@@H]2C=C[C@H]3C2)cc1` [IWR-1-endo], the IC50 in series [3] was 180 nM. With `Cc1cc(-c2ncc(CC(=O)Nc3ccc(-c4cnccn4)cn3)cc2C)ccn1` [LGK-974], the IC50 in series [4] is 0.4 nM.

In the case of `COc1ccc(-n2c(SCCCN3C(=O)c4cccc5cccc(c45)C3=O)nnc2-c2ccncc2)cc1` [WIKI4], the 50% inhibitory concentration (IC50) on TNKS2 was 15 nM. For `Cc1cc(-c2ccc(CC(=O)Nc3ccc(-c4cccnc4)cc3)cc2)ccn1` [Wnt-C59], in series [5], the IC50 is 0.074 nM.
